EC50 data for one molecule are collected here from ChEMBL document CHEMBL6127044, “An insight into G-quadruplexes: Identification and potential therapeutic targets in livestock viruses” (Eur J Med Chem, 2024).

In this assay the test system is SARS-CoV-2. Briefly: Antiviral activity against SARS-CoV-2 Wuhan 5-2N variant infected in African green monkey Vero E6 cells measured 3 days post infection by WST-8 assay. Type of assay: functional, organism-based. Particulars: Severe acute respiratory syndrome coronavirus 2, Wuhan 5-2N, Vero C1008, 72 h. On the technique in general: Tetrazolium assays rely on reduction of a dye to a coloured formazan, in cell work by metabolically active cells.

Broadly, the EC50 is the concentration needed to bring the measured effect to its halfway point.

The structures appear in SMILES notation.

In the case of `CCc1c(C)c2cc3nc(cc4nc(cc5c(CC)c(C)c(cc1[nH]2)n5C)C(C)=C4CCC(=O)O)C(CCC(=O)O)=C3C`, the midpoint of the response, the EC50, lay at 1.16 nM.
